How the values were obtained:
5XFAD mice [1] = experiment: Cop 1 (GA) vaccination regimens in 5XFAD mice: FoxP3+ T cells in spleen (FACS) and CP (staining); assay type: in vivo, mouse
Method: For intracellular staining of IFN-γ or IL-17, the cells were incubated with PMA (10 ng/ml; Sigma-Aldrich) and ionomycin (250 ng/ml; Sigma-Aldrich) for 6 h, and Brefeldin-A ([…]; Sigma-Aldrich) was added for the last 4 h. Intracellular labeling of cytokines was done with BD Cytofix/Cytoperm Plus Fixation/Permeabilization kit (cat. no. 555028) according to the manufacturer's protocol. Intracellular staining of FoxP3 was performed using the FoxP3 staining kit (eBioscience) according to the manufacturer's protocol. The following fluorochrome-labeled mAbs were used according to the manufacturers' protocols: FITC-conjugated anti-TCRβ, FITC-conjugated anti-CD44, PE-conjugated anti-CD4, PE-conjugated anti-IL-17A, APC-conjugated anti-IFN-γ, FITC-conjugated anti-CD45.2, Alexa-700-conjugated anti-CD45.2, Percp-Cy5.5-conjugated anti-TCRβ (all from BioLegend), and APC-conjugated anti-FoxP3 (eBioscience). Flow cytometry analysis was performed on each sample using a BD Biosciences LSRII flow cytometer, and the acquired data were analyzed using FlowJo software (Tree star). In each experiment, relevant negative control groups and single stained samples for each tissue were used to determine the populations of interest and to exclude others.
For whole mount staining of the choroid plexus, isolated tissues were fixed with 2.5% paraformaldehyde (PFA) for several hours, and subsequently transferred to PBS containing 0.05% sodium azide. Prior to staining, the dissected tissues were washed and blocked (20% horse serum, 0.3% Triton X-100, and PBS) for 1 h at room temperature with shaking. Whole mount staining with primary (in PBS containing 2% horse serum and 0.3% Triton X-100) and secondary antibodies (in PBS), was performed for 1h at room temperature, with shaking. Each step was followed by three washes in PBS. […] For morphological quantification, average cross-sectional area of epithelial cells was measured following Nissl staining. Cell borders (20-25 cells per picture) were marked and the area was quantified using Image-Pro Plus software in a blinded fashion. […]

5XFAD mice [2] = experiment: Radial arm water maze (RAWM) in GA vaccinated 5XFAD mice; assay type: in vivo, mouse
Method: Mice were tested for two days on 6 radial arm water maze paradigm in a water pool, as described in Alamed et al., Nat Protoc. 2006, 1(4), 1671-1679. Briefly, mice received an injection of GA as indicated in the examples. On the first day, 15 trials were performed, in trials 1, 3, 5, 7, 9 and 11 the platform was visible, and in all other trials the platform was hidden. On the second day, 12 trials were performed, all of them with hidden platform. The time required to reach the platform and the number of errors (incorrect arm entries) in 1-min time period was recorded.
To test the effect of different regimens of administration of Cop 1, 5XFAD females were vaccinated subcutaneously (S.C.) with 100 μg Cop 1 dissolved in 200 μl PBS. Three different regimens were compared: 5XFAD+2GA were vaccinated twice, with the second injection given three days after the first; 5XFAD+5GA were vaccinated five times, twice in the first week and once a week for another three weeks, and 5XFAD+daily GA were vaccinated every day for 28 days (19B). One day after the last GA injection, mice were sacrificed and their spleens were analyzed by FACS and compared to WT and untreated 5XFAD littermates. […] Radial arm water maze (RAWM) was performed to 4 groups of 8 months old mice to test mental cognitive performance. […]

[3] = daily administration, subjects receiving daily injections; cited from earlier work

In the case of Glatiramer Acetate [GA], the “fold change of FoxP3+ T cells in spleen” value (5XFAD mice [1]; 2GA: vaccinated twice, second injection three days after the first, 100 μg S.C., compared to untreated 5XFAD) is reported as “significant decrease in the fold change of FoxP3^+ T cells”, the “incidence of FoxP3+CD3+ T cells in the CP” value (5XFAD mice [1]; 5XFAD+5GA, compared to untreated 5XFAD littermates) is reported as “decreased” and the “FoxP3+ T cells in the spleens” value (5XFAD mice [1]; daily GA: every day for 28 days, 100 μg S.C.) is reported as “promoted the enrichment of FoxP3^+ T cells”. For the same substance, the “RAWM performance (mental cognitive performance)” value (5XFAD mice [2]; daily administration of GA for 28 days) was “performed as badly as the unvaccinated 5XFAD mice”, the “RAWM performance (mental cognitive performance)” value (5XFAD mice [2]; weekly GA: twice in the first week and once a week for another 3 weeks, compared to unvaccinated 5XFAD) was “significantly improved” and the “level of Treg cells in the blood” value [3] was “raises the level of Treg cells in the blood”.

Reference: patent US20190022198A1, “Individualized Immunomodulation Therapy for Neurodegenerative Disorders, CNS Injury and Age-Related Dementia” (Yeda Research and Development Co. Ltd., priority 2012, published 2019)
